Experimental data taken from patent publication EP0942721B1, “LIQUID COMPOSITION COMPRISING AN HIV PROTEASE INHIBITOR AND A C12-C18 FATTY ACID” (Abbott Laboratories, priority 1996, dated 1998).

Experiment: Oral bioavailability studies in dogs
Assay type: in vivo, beagle dogs
Conditions: dog, administered as an unformulated solid in a capsule dosage form, 5 mg/kg oral dose in dogs
Method: Dogs (beagle dogs, mixed sexes, weighing 7-14 kg) were fasted overnight prior to dosing, but were permitted water ad libitum. Each dog received a 100 µg/kg subcutaneous dose of histamine approximately 30 minutes prior to dosing. Each dog received a single solid dosage form corresponding to a 5 mg/kg dose of the drug. The dose was followed by approximately 10 milliliters of water. Blood samples were obtained from each animal prior to dosing and 0.25, 0.5, 1.0,1.5, 2, 3, 4, 6, 8, 10 and 12 hours after drug administration. The plasma was separated from the red cells by centrifugation and frozen (-30°C) until analysis. Concentrations of parent drug were determined by reverse phase HPLC with low wavelength UV detection following liquid-liquid extraction of the plasma samples. The parent drug area under the curve was calculated by the trapezoidal method over the time course of the study. The absolute bioavailability of each test composition was calculated by comparing the area under the curve after oral dosing to that obtained from a single intravenous dose. Each capsule or capsule composition was evaluated in a group containing at least six dogs; the values reported are averages for each group of dogs.

Row | bioavailability at 12 h (in vivo) | bioavailability (both sexes, beagle, plasma) | SMILES
1 | < 2% | – | CC(C)c1nc(CN(C)C(=O)N[C@H](C(=O)N[C@@H](Cc2ccccc2)C[C@H](O)[C@H](Cc2ccccc2)NC(=O)OCc2cncs2)C(C)C)cs1 [bis-tosylate of compound III]
2 | – | < 2% | CC(C)c1nc(CN(C)C(=O)N[C@H](C(=O)N[C@@H](Cc2ccccc2)C[C@H](O)[C@H](Cc2ccccc2)NC(=O)OCc2cncs2)C(C)C)cs1 [compound III, (2S,3S,5S)-5-(N-(N-((N-Methyl-N-((2-isopropyl-4-thiazolyl)methyl)-amino)carbonyl)valinyl)amino)-2-(N-((5-thiazolyl)methoxycarbonyl)amino)-1,6-diphenyl-3-hydroxyhexane]
